Data: paper PMC12527977, “Discovery of a novel tetrapeptide as glucose homeostasis modulator with bifunctionalities of targeting DPP‐IV and microbiota” (iMeta, 2025)
Read-outs that look alike come from different tables or passages of the source. Where a SMILES comes first, the peptide text is derived from it.

Tests used:
[1] = Blood pharmacokinetics of VAMP, 10 mg/kg i.v. or p.o.; type: in vivo; details: mouse, po
Description: FIGURE 2 VAMP inhibits intestinal dipeptidyl peptidase IV (DPP‐IV) and increases the abundance of A. muciniphila. (A) The experimental scheme for (B–O) is shown, n = 6 mice/group. HFD‐fed mice were treated with PBS (vehicle group) or VAMP (50 mg/kg, VAMP group) for 8 weeks by oral gavage. (B) The body weight change, (C) FBG level, (D) intestinal active GLP‐1 levels, (E) plasma active GLP‐1 levels, (F) OGTT curve, (G) AUC of the OGTT, and (H) HOMA‐IR index were evaluated. (I) Intestinal permeability was measured by plasma fluorescence intensity after gavage with FITC‐dextran 4000. (J) The plasma levels of LPS, (K) TNF‐α, and (L) IL‐1β were determined. (M) Carnoy‐fixed colonic tissue sections were stained with Alcian blue/periodic acid‐Schiff. Scale bars, 100 µm. […] (O) The relative expression of Tjp1, Ocln, Cldn1, Cldn3, Cldn4, Cldn5, and Muc2 mRNAs in colonic tissue was determined. (P) The blood pharmacokinetics of 10 mg/kg VAMP administered by injection (i.v.) or gavage (p.o.) over time were evaluated. (Q) The tissue distribution of VAMP at the time of peak plasma concentration (30 min) after the administration of 10 mg/kg VAMP by gavage was determined (n = 4). […] (U) The change in bacterial abundance at the species level after VAMP treatment was determined via random forest analysis. […]
(§1) We first determined the VAMP metabolic kinetics in model mice.

[2] = Tissue distribution of VAMP 30 min after 10 mg/kg by gavage; type: in vivo, mouse; details: for Tissue distribution, relative proportion in Heart / Tissue distribution, relative proportion in Intestinal content / Tissue distribution, relative proportion in Intestinal tissue / Tissue distribution, relative proportion in Kidney / Tissue distribution, relative proportion in Liver / Tissue distribution, relative proportion in Lung / Tissue distribution, relative proportion in Spleen: 10 mg/kg by gavage, 30 min
Description: FIGURE 2 VAMP inhibits intestinal dipeptidyl peptidase IV (DPP‐IV) and increases the abundance of A. muciniphila. (A) The experimental scheme for (B–O) is shown, n = 6 mice/group. HFD‐fed mice were treated with PBS (vehicle group) or VAMP (50 mg/kg, VAMP group) for 8 weeks by oral gavage. (B) The body weight change, (C) FBG level, (D) intestinal active GLP‐1 levels, (E) plasma active GLP‐1 levels, (F) OGTT curve, (G) AUC of the OGTT, and (H) HOMA‐IR index were evaluated. (I) Intestinal permeability was measured by plasma fluorescence intensity after gavage with FITC‐dextran 4000. (J) The plasma levels of LPS, (K) TNF‐α, and (L) IL‐1β were determined. (M) Carnoy‐fixed colonic tissue sections were stained with Alcian blue/periodic acid‐Schiff. Scale bars, 100 µm. (N) Blinded colonic mucus layer measurements were made from Alcian blue‐stained sections. (O) The relative expression of Tjp1, Ocln, Cldn1, Cldn3, Cldn4, Cldn5, and Muc2 mRNAs in colonic tissue was determined. (P) The blood pharmacokinetics of 10 mg/kg VAMP administered by injection (i.v.) or gavage (p.o.) over time were evaluated. (Q) The tissue distribution of VAMP at the time of peak plasma concentration (30 min) after the administration of 10 mg/kg VAMP by gavage was determined (n = 4). (R) PCoA was performed using the Bray‒Curtis distance. (S, T) Taxonomic cladograms were generated by LEfSe analysis. The blue color indicates enriched taxa in the VAMP group, and the red color indicates enriched taxa in the vehicle group. The size of each circle is proportional to the taxon's abundance. (U) The change in bacterial abundance at the species level after VAMP treatment was determined via random forest analysis. (V) Growth curve of A. muciniphila cultured in BHI media supplemented with VAMP (50 μM) or PBS (Vehicle) and then grown anaerobically. (W−Y) RNA‐seq analysis of the A. muciniphila cultured in BHI media supplemented with VAMP (50 μM) or PBS control (Vehicle) was performed (n = 3). (W) PCA of transcriptome. (X) Biofunction changes of A. muciniphila by VAMP treatment via KEGG enrichment analysis. (Y) Volcano plot of transcriptome sequencing of Vehicle and VAMP groups. (Z) Levels of peptidoglycan by VAMP treatment. *p < 0.05 and **p < 0.01 versus the vehicle group. AUC, area under the curve; BHI, brain heart infusion; FBG, fasting blood glucose; GLP‐1, glucagon‐like peptide‐1; HOMA‐IR, homeostatic model assessment of insulin resistance; IL‐1β, interleukin‐1β; LEfSe, linear discriminant analysis effect size; LPS, lipopolysaccharide; OGTT, oral glucose tolerance test; PCoA, principal coordinate analysis; TNF‐α, tumor necrosis factor α.
as §1

in vitro [3] = type: in vitro ADME; details: cells or culture medium, VAMP (%) remaining
Source text: (§2) The levels of VAMP at different time points were quantified by targeted metabolomics.

[4] = test system: faeces-derived bacterial community; test: in vitro; type: in vitro ADME
Source text: as §2

in vitro [5] = type: in vitro ADME, Akkermansia muciniphila; details: cells or culture medium, VAMP remaining, incubated with A. muciniphila
Source text: as §2

DPP-IV [6] = molecular target: T1, DPP-IV (Homo sapiens, UniProt P27487); test: DPP-IV inhibitory activity of peptides (DPP-IV-Glo Protease Assay Kit); type: biochemical; design: purchased QiZheng Biotech (Shanghai, China) IBDPP0901; details: for DPP-IV inhibitory activity: DPP-IV-Glo Protease Assay Kit, control = 0, sheet S2F, in % (unit assumed)
Target sequence in this assay (P27487 whole entry): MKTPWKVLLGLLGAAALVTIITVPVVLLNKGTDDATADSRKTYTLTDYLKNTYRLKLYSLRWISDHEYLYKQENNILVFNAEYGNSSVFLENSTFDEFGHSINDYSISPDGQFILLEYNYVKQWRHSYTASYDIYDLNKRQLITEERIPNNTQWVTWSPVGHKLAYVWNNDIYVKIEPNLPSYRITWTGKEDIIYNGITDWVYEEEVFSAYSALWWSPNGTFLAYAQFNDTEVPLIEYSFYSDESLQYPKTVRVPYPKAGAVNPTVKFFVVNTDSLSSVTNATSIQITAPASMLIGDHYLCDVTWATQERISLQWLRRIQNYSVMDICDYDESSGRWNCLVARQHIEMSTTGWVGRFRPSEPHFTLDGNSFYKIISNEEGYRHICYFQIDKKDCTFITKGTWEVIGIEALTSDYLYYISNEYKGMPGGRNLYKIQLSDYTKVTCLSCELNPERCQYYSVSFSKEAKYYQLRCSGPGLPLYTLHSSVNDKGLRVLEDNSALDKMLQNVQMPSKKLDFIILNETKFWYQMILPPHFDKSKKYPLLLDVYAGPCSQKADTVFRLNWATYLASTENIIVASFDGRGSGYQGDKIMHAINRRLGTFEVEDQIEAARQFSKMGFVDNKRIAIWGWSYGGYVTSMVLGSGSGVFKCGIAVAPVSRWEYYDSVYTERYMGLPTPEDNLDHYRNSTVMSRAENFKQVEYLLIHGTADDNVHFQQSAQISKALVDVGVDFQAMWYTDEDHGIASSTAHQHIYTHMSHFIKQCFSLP

DPP-IV [7] = molecular target: T1, DPP-IV; test: Surface plasmon resonance (Biacore 8K, CM5 chip, 25 °C); type: binding; design: purchased QiZheng Biotech (Shanghai, China) IBDPP0901; details: SPR, Table S3; read-out: KD values
DPP-IV [8] = molecular target: T1, DPP-IV; test: DPP-IV inhibition in iPSC-induced intestinal organoids (supernatant, DPP-IV-Glo kit); type: cell-based; design: endogenous in cells; host or cells: iPSC-induced intestinal organoids; details: Fig 1R, 24 h, read-out: Inhibitory effect on DPP-IV; for inhibition at 100 µg/mL: VAMP 100 μg/mL; for inhibition at 200 µg/mL: VAMP 200 μg/mL; for inhibition at 500 µg/mL: VAMP 500 μg/mL
Source text: iPSC-induced intestinal organoids were established according to the manufacturer’s instructions (STEMdiff^TM Intestinal Organoid kit).
Target sequence in this assay (P27487 whole entry): as above

CSCC[C@H](NC(=O)[C@H](C)NC(=O)[C@@H](N)C(C)C)C(=O)N1CCC[C@H]1C(=O)O [VAMP] (H-VAMP-OH)
bioavailability ([1]; blood, mice, 10 mg/kg p.o. vs i.v., printed in picture Fig 2P): 10.5% | Tmax ([1]; plasma, 10 mg/kg by gavage, read-out: Time of peak plasma concentration (converted)): 30 min | Tissue distribution, relative proportion in Heart ([2]; animal 1): 0.7129% | Tissue distribution, relative proportion in Intestinal content ([2]; animal 1): 72.8435% | Tissue distribution, relative proportion in Intestinal tissue ([2]; animal 1): 17.3859% | Tissue distribution, relative proportion in Kidney ([2]; animal 1): 1.873% | Tissue distribution, relative proportion in Liver ([2]; animal 1): 2.36% | Tissue distribution, relative proportion in Lung ([2]; animal 1): 1.2931% | Tissue distribution, relative proportion in Spleen ([2]; animal 1): 3.531% | Tissue distribution, relative proportion in Heart ([2]; animal 2): 0.3824% | Tissue distribution, relative proportion in Intestinal content ([2]; animal 2): 73.0882% | Tissue distribution, relative proportion in Intestinal tissue ([2]; animal 2): 19.9706% | Tissue distribution, relative proportion in Kidney ([2]; animal 2): 1.279% | Tissue distribution, relative proportion in Liver ([2]; animal 2): 2.103% | Tissue distribution, relative proportion in Lung ([2]; animal 2): 0.9118% | Tissue distribution, relative proportion in Spleen ([2]; animal 2): 2.265% | Tissue distribution, relative proportion in Heart ([2]; animal 3): 0.4562% | Tissue distribution, relative proportion in Intestinal content ([2]; animal 3): 74.7307% | Tissue distribution, relative proportion in Intestinal tissue ([2]; animal 3): 19.1872% | Tissue distribution, relative proportion in Kidney ([2]; animal 3): 0.6681% | Tissue distribution, relative proportion in Liver ([2]; animal 3): 1.699% | Tissue distribution, relative proportion in Lung ([2]; animal 3): 0.5703% | Tissue distribution, relative proportion in Spleen ([2]; animal 3): 2.689% | Tissue distribution, relative proportion in Heart ([2]; animal 4): 0.5116% | Tissue distribution, relative proportion in Intestinal content ([2]; animal 4): 76.0476% | Tissue distribution, relative proportion in Intestinal tissue ([2]; animal 4): 16.2858% | Tissue distribution, relative proportion in Kidney ([2]; animal 4): 1.305% | Tissue distribution, relative proportion in Liver ([2]; animal 4): 2.163% | Tissue distribution, relative proportion in Lung ([2]; animal 4): 0.882% | Tissue distribution, relative proportion in Spleen ([2]; animal 4): 2.805% | VAMP remaining in the intestinal content at the time of peak plasma concentration ([2]; after gavage): 74.18% | remaining at 3 h, 100 μM (in vitro [3]; 3 h): 98.5% | remaining at 6 h, 100 μM (in vitro [3]; 6 h): 84.6% | remaining at 12 h, 100 μM (in vitro [3]; 12 h): 51.7% | remaining at 36 h, 100 μM (in vitro [3]; 36 h): 2.1% | remaining at 48 h, 100 μM (in vitro [3]; 48 h): 0% | Degradation of VAMP in faeces-derived microbial community culture [4]: degraded by gut microbiota | remaining at 3 h, 100 μM (in vitro [5]; time 3): 98.6% | remaining at 6 h, 100 μM (in vitro [5]; time 6): 95.4% | remaining at 9 h, 100 μM (in vitro [5]; time 9): 93.3% | remaining at 12 h, 100 μM (in vitro [5]; time 12): 79.6% | remaining at 24 h, 100 μM (in vitro [5]; time 24): 28.1% | remaining at 36 h, 100 μM (in vitro [5]; time 36): 21.4% | remaining at 48 h, 100 μM (in vitro [5]; time 48): 19.3% | inhibition at 1 µg/mL (DPP-IV [6]): 50.7% | inhibition at 20 µg/mL (DPP-IV [6]): 52.1% | inhibition at 50 µg/mL (DPP-IV [6]): 68.9% | inhibition at 100 µg/mL (DPP-IV [6]): 77.6% | inhibition at 200 µg/mL (DPP-IV [6]): 81.5% | DPP-IV inhibitory activity (DPP-IV [6]; replicate 1): 68.9829 | DPP-IV inhibitory activity (DPP-IV [6]; replicate 2): 67.7707 | DPP-IV inhibitory activity (DPP-IV [6]; replicate 3): 61.9665 | IC50 (DPP-IV [6]; Table S3, read-out: IC50): 1 µM | Kd (DPP-IV [7]): 6.89 µM | inhibition at 100 µg/mL (DPP-IV [8]; replicate 1): 72.5% | inhibition at 100 µg/mL (DPP-IV [8]; replicate 2): 69.3% | inhibition at 100 µg/mL (DPP-IV [8]; replicate 3): 50.4% | inhibition at 200 µg/mL (DPP-IV [8]; replicate 1): 82.5% | inhibition at 200 µg/mL (DPP-IV [8]; replicate 2): 80.3% | inhibition at 200 µg/mL (DPP-IV [8]; replicate 3): 84.2% | inhibition at 500 µg/mL (DPP-IV [8]; replicate 1): 92.1% | inhibition at 500 µg/mL (DPP-IV [8]; replicate 2): 89.1% | inhibition at 500 µg/mL (DPP-IV [8]; replicate 3): 84.8%
